According to patent US20150231147A1, “METHODS FOR ACUTE AND LONG-TERM TREATMENT OF DRUG ADDICTION” (DemeRx, Inc., priority 2014, published 2015):

Test system: opioid-dependent participants
Test: Treatment emergent adverse events in opioid-dependent participants
Type: in vivo, human
Conditions: opioid-dependent patients
Protocol: The efficacy of noribogaine in humans was evaluated in opioid-dependent participants in a randomized, placebo-controlled, double-blind trial. […] See U.S. application Ser. No. 14/214,157, filed Mar. 14, 2014 and Ser. No. 14/346,655, filed Mar. 21, 2014, which are incorporated herein by reference in their entireties.
Three cohorts of nine (9) subjects (6 administered noribogaine and 3 administered placebo in each cohort) were evaluated for tolerability, pharmacokinetics, and efficacy. Cohort 1 received a single dose of 60 mg noribogaine or placebo. Cohort 2 received a single dose of 120 mg noribogaine or placebo. Cohort 3 received a single dose of 180 mg noribogaine or placebo.

Compound: CC[C@H]1CC2C[C@H]3c4[nH]c5ccc(O)cc5c4CCN(C2)C13 [Noribogaine]
- Treatment emergent AEs: Catheter Site Infection (single 60 mg dose (N = 6)): 0
- Treatment emergent AEs: Catheter Site Pain (single 60 mg dose (N = 6)): 0
- Treatment emergent AEs: Catheter Site Related Reaction (single 60 mg dose (N = 6)): 0
- Treatment emergent AEs: Cellulitis (single 60 mg dose (N = 6)): 0
- Treatment emergent AEs: Diarrhoea (single 60 mg dose (N = 6)): 0
- Treatment emergent AEs: Dry Mouth (single 60 mg dose (N = 6)): 0
- Treatment emergent AEs: Ear and Labyrinth Disorders (single 60 mg dose (N = 6)): 0
- Treatment emergent AEs: Epistaxis (single 60 mg dose (N = 6)): 0
- Treatment emergent AEs: Euphoric Mood (single 60 mg dose (N = 6)): 0
- Treatment emergent AEs: General Disorders and Administration Site Conditions (single 60 mg dose (N = 6)): 0
- Treatment emergent AEs: Hyperaesthesia (single 60 mg dose (N = 6)): 0
- Treatment emergent AEs: Infections and Infestations (single 60 mg dose (N = 6)): 0
- Treatment emergent AEs: Limb Discomfort (single 60 mg dose (N = 6)): 0
- Treatment emergent AEs: Malaise (single 60 mg dose (N = 6)): 0
- Treatment emergent AEs: Nausea (single 60 mg dose (N = 6)): 0
- Treatment emergent AEs: Oropharyngeal Pain (single 60 mg dose (N = 6)): 0
- Treatment emergent AEs: Pseudoparalysis (single 60 mg dose (N = 6)): 0
- Treatment emergent AEs: Respiratory, Thoracic and Mediestinal Disorders (single 60 mg dose (N = 6)): 0
- Treatment emergent AEs: Rhinorrhoea (single 60 mg dose (N = 6)): 0
- Treatment emergent AEs: Skin Discomfort (single 60 mg dose (N = 6)): 0
- Treatment emergent AEs: Skin Irritation (single 60 mg dose (N = 6)): 0
- Treatment emergent AEs: Skin and Subcutaneous Tissue Disorders (single 60 mg dose (N = 6)): 0
- Treatment emergent AEs: Somnolence (single 60 mg dose (N = 6)): 0
- Treatment emergent AEs: Tinnitus (single 60 mg dose (N = 6)): 0
- Treatment emergent AEs: Tremor (single 60 mg dose (N = 6)): 0
- Treatment emergent AEs: Urinary Tract Infection (single 60 mg dose (N = 6)): 0
- Treatment emergent AEs: Vomiting (single 60 mg dose (N = 6)): 0
- Treatment emergent AEs: Back pain (single 120 mg dose (N = 6)): 0
- Treatment emergent AEs: Catheter Site Infection (single 120 mg dose (N = 6)): 0
- Treatment emergent AEs: Catheter Site Related Reaction (single 120 mg dose (N = 6)): 0
- Treatment emergent AEs: Depressed Mood (single 120 mg dose (N = 6)): 0
- Treatment emergent AEs: Dry Eye (single 120 mg dose (N = 6)): 0
- Treatment emergent AEs: Dyspepsia (single 120 mg dose (N = 6)): 0
- Treatment emergent AEs: Euphoric Mood (single 120 mg dose (N = 6)): 0
- Treatment emergent AEs: Limb Discomfort (single 120 mg dose (N = 6)): 0
- Treatment emergent AEs: Malaise (single 120 mg dose (N = 6)): 0
- Treatment emergent AEs: Musculoskeletal and Connective Tissue Disorders (single 120 mg dose (N = 6)): 0
- Treatment emergent AEs: Psychiatric Disorders (single 120 mg dose (N = 6)): 0
- Treatment emergent AEs: Somnolence (single 120 mg dose (N = 6)): 0
- Treatment emergent AEs: Urinary Tract Infection (single 120 mg dose (N = 6)): 0
- Treatment emergent AEs: Catheter Site Infection (single 180 mg dose (N = 6)): 0
- Treatment emergent AEs: Catheter Site Pain (single 180 mg dose (N = 6)): 0
- Treatment emergent AEs: Depressed Mood (single 180 mg dose (N = 6)): 0
- Treatment emergent AEs: Diarrhoea (single 180 mg dose (N = 6)): 0
- Treatment emergent AEs: Dry Eye (single 180 mg dose (N = 6)): 0
- Treatment emergent AEs: Dyspepsia (single 180 mg dose (N = 6)): 0
- Treatment emergent AEs: Ear and Labyrinth Disorders (single 180 mg dose (N = 6)): 0
- Treatment emergent AEs: Epistaxis (single 180 mg dose (N = 6)): 0
- Treatment emergent AEs: Euphoric Mood (single 180 mg dose (N = 6)): 0
- Treatment emergent AEs: Hyperaesthesia (single 180 mg dose (N = 6)): 0
- Treatment emergent AEs: Malaise (single 180 mg dose (N = 6)): 0
- Treatment emergent AEs: Oropharyngeal Pain (single 180 mg dose (N = 6)): 0
- Treatment emergent AEs: Pseudoparalysis (single 180 mg dose (N = 6)): 0
- Treatment emergent AEs: Psychiatric Disorders (single 180 mg dose (N = 6)): 0
- Treatment emergent AEs: Respiratory, Thoracic and Mediestinal Disorders (single 180 mg dose (N = 6)): 0
- Treatment emergent AEs: Rhinorrhoea (single 180 mg dose (N = 6)): 0
- Treatment emergent AEs: Skin Discomfort (single 180 mg dose (N = 6)): 0
- Treatment emergent AEs: Skin Irritation (single 180 mg dose (N = 6)): 0
- Treatment emergent AEs: Skin and Subcutaneous Tissue Disorders (single 180 mg dose (N = 6)): 0
- Treatment emergent AEs: Somnolence (single 180 mg dose (N = 6)): 0
- Treatment emergent AEs: Tinnitus (single 180 mg dose (N = 6)): 0
- Treatment emergent AEs: Tremor (single 180 mg dose (N = 6)): 0
- adverse effects observed (single 60, 120 or 180 mg dose): Few adverse effects
- hallucinatory effects (single 60, 120 or 180 mg dose): no hallucinatory effects
